# Experimental data: the pKa sets of Baltruschat and Czodrowski (2020)
# Settings: acidic group
row,SMILES,pKa
1,O=C(O)CCc1nnnn1-c1ccccc1,5
2,Cc1cc(C)cc(C(=O)O)c1,4.3
3,Cc1ccc(SCC(=O)O)cc1,3.57
4,O=C(C[n+]1cccc2c3ccccc3ccc21)c1ccc(-c2ccccc2)cc1,11.2
5,[NH3+]C(CCc1ccc([N+](=O)[O-])cc1)C(=O)O (stereo not drawn),3.05
6,CN(C)c1cc[nH+]c2c(O)cccc12,7.05
7,OC(O)c1ccccn1,12.8
8,C/C(=C(/S)CCO)N(C=O)Cc1cnc(C)nc1N,11.4
9,O=C(O)c1cc2cc(Cn3cc[nH+]c3)ccc2s1,2.74
10,CC(C)(/C=C/C(=O)O)c1cc(Br)ccc1O,4.46
11,O=C1Cc2c1cc([N+](=O)[O-])c(O)c2Br,2.88
12,O=C(O)c1ccco1,3.18
13,NC(=O)Nc1[nH]c[nH+]c1C(=O)O,2
14,Nc1ccc(S(=O)(=O)Nc2cnc(Cl)nc2)cc1,5.8
15,CCN(CC)S(=O)(=O)c1ccsc1C(=O)O,2.77
16,CN(C)Cc1cc(CC(C)(C)C)ccc1O,11.5
17,CCCSC(C)C(=O)O (stereo not drawn),3.82
18,N#Cc1ccc(O[C@H]2O[C@@H](C(=O)O)[C@H](O)[C@@H](O)[C@@H]2O)cc1,3.22
19,O=[N+]([O-])c1cccc(-c2ccc(O)cc2)c1,9.14
20,CN(C)c1ccc(NC=S)cc1,12
21,CC(=O)ONc1cc(=O)n(C)c(=O)n1C,7.01
22,OB(O)CCc1ccccc1,10
23,CC(C)CC(N)C(N)=O (stereo not drawn),8
24,CC(=O)C(C)C(=O)C(C)C (stereo not drawn),11.8
25,Cc1ccc(NS(=O)(=O)c2ccccc2)cc1,8.63
26,C[C@@H]1C[C@@H]1C(=O)O,5.03
27,Cc1ccc([N+](C)(C)C)cc1O,8.2

row,SMILES,pKa
1,O=C(O)C[C@]1(O)C[C@H]2CC[C@@H]1C2,4.57
2,O=S(=O)([N-]c1ncccn1)c1ccc(O)cc1,9
3,CNc1nc2ncncc2[nH]1,9.56
4,OC(c1ccncc1)(c1ccncc1)c1cccnc1,11.9
5,C[C@@H]1CC[C@H](C)[C@@H]1C(=O)O,5.4
6,C[NH+](C)Cc1cc(F)ccc1O,8.12
7,O=C([O-])c1cccc2ccc(O)cc12,9.6
8,COc1ccc2c(c1)CCC(=O)C2,13.3
9,O=C([O-])c1ccc(O)c([N+](=O)[O-])c1,6.41
10,C(C[NH2+]CCc1nnn[nH]1)[NH2+]CCc1nnn[nH]1,3.11
11,COO,11.5
12,CCOCCn1c(N2CCC[NH+](CCCCn3cc(C(=O)O)cn3)CC2)[nH+]c2ccccc21,3.7
13,CCOC(=O)Nc1nnc(-c2ccccc2)s1,8.2
14,C#CC#CC#CCC(O)CCC(=O)O (stereo not drawn),4.75
15,O=CO,3.69
16,Cc1nn(C)c(O)c1-c1ccccc1,10.9
17,C[N+](C)(C)Cc1ccccc1O,8.71
18,Oc1cccc2cccnc12,9.77
19,Cc1c(C(=O)O)cccc1[N+](=O)[O-],2.98
20,O=C(NOC(=O)c1ccccc1)c1ccccc1,6
21,O/N=C(/Cc1ccccc1)NO,10.7
22,Cc1c[n+]([C@@H]2C[C@@H](O)[C@H](CO)O2)c(O)nc1N,4.4
23,CC(=O)NS(=O)(=O)c1ccc(C)cc1,4.8
24,CC(=O)CC(=O)Nc1ccccc1,9.94
25,NC(=O)CCCc1ccccn1,5.48
26,CC(C[NH3+])C(=O)O (stereo not drawn),3.53
27,CC[Si](C)(C)CC(=O)O,5.4

row,SMILES,pKa
1,O=S(=O)(Nc1nccs1)c1ccc(O)cc1,6
2,COC(=O)c1ccccc1S,6.3
3,Nc1ccc(S(=O)(=O)Nc2cccc[n+]2[O-])cc1,5.2
4,Nc1ccc(S(=O)(=O)Nc2cncnc2)cc1,6.62
5,CN(C)/C=N/c1ccc(O)cc1,10.5
6,O=S(=O)([O-])c1ccc(O)cc1,8.91
7,Cc1ccc(C(O)C(C(=O)O)c2ccc(-c3ccccc3)cc2)cc1 (stereo not drawn),4.24
8,[O-]c1nc(O)nn1-c1ccccc1,12.2
9,CC1CC(=O)N(O)C1(C)C (stereo not drawn),8.85
10,COc1ccc(O)c(=O)cc1,7.75
11,Clc1cccc(-c2nnn[nH]2)c1,3.61
12,COc1cccc(OC)c1-c1nc2cnccc2[nH]1,10.9
13,Cc1cccc(NC=S)c1,11.6
14,O=C1CCCC(=O)C1,5.26
15,CC(=O)Nc1ccc(O)c([N+](=O)[O-])c1,6.78
16,N#C/C(=N\O)C(N)=O,5.12
17,CCCCc1c(O)nc(NCC)[nH+]c1C,5.04
18,C/C=C/CCC(=O)O,4.72
19,NC(=O)[C@@H](N)CSSC[C@H](N)C(N)=O,6.41
20,Cc1ccc2ccccc2c1C(=O)O,3.11
21,On1nnc2ccc(Br)cc21,3.97
22,C[n+]1ccc2cc(O)ccc2c1,6.06
23,Cc1cccc2oc(=O)cc(O)c12,4.2
24,O=[N+]([O-])CCc1ccccc1,8.55
25,Cc1ccc(C(=S)Nc2ccc(Br)cc2)cc1,10.8
26,O=C1CCCCC1=O,10.3

# Same assay, conditions: basic group
row,SMILES,pKa
1,CC(C)N/C=[NH+]/c1ccc(-c2c[nH]cn2)cc1,5.58
2,NC(=S)NCc1ccccc1,0.86
3,CN(C)N,7.16
4,CCCCNCCCC,11.3
5,Cc1nc2ccccc2[nH]1,6.3
6,Cc1ccc(-c2cnc(-c3ccc(C)cc3)o2)cc1,1.12
7,Cc1cc(-c2ccccc2)nn2cc(C[NH+]3CCOCC3)nc12,1.5
8,CC(C)N(CCC(c1ccccc1)c1ccccn1)C(C)C (stereo not drawn),10.5
9,C[C@H](CCCN)[C@H]1CC[C@H]2[C@@H]3CC[C@@H]4C[C@H](O)CC[C@]4(C)[C@H]3CC[C@]12C,9.7
10,CC(CCN(C)C)NN (stereo not drawn),9.23
11,N[C@@H](Cc1ccccc1)C(=O)[O-],9.14
12,CCCCCCCCCCCCCCN(CC(C)O)CC(O)CC (stereo not drawn),6.1
13,CCNN(CC)CC,7.08
14,C/C(=C(/S)CCO)N(C=O)Cc1cnc(C)nc1N,4.19
15,Cc1cncc(C)[nH+]1,-4.48
16,CNCCC#N,8.1
17,c1ccc(C(CCN2CCOCC2)c2ccccc2)cc1,7.25
18,CC(=O)c1ccccc1N,2.31
19,c1ccc(-c2ccncc2)cc1,5.3
20,CN(C)CC[N-]S(=O)(=O)c1cccc2c(N(C)C)cccc12,10.9
21,NC/C=C/C(=O)[O-],9.46
22,O=C(O)c1ccco1,-0.53
23,C=CCN(CC1CO1)CC1CO1 (stereo not drawn),6.16
24,N/C(Cc1ccccc1)=N\O,5.32

row,SMILES,pKa
1,NC1=[NH+][C@@H](CC(=O)[O-])C(=O)N1CCCC(N)C(=O)[O-] (stereo partly drawn),8.1
2,CC(C)N(C(C)C)C(C)C,11.9
3,CCC(O)CN(CCO)C(C)(C)C (stereo not drawn),9.4
4,CCN1CC1,7.91
5,O=C(/C=N/O)NCCN1CCOCC1,6.19
6,OCCCNc1ccccc1,4.53
7,Nc1nnnn1-c1cccc(Cl)c1,0.7
8,NCCCCCCCCC(=O)[O-],11
9,O=C([O-])[C@@H]1C[C@@H](O)CN1,9.64
10,C1CCC2(CC1)N1CCCN12 (stereo not drawn),5.19
11,Cc1ccc2cccnc2c1,5.25
12,CC(C)c1cccnc1,5.72
13,CCCc1ccnc2c1ccc1cccnc12,5.45
14,CCCCCN(CC(C)O)CC(C)O (stereo not drawn),9
15,Cc1cnc(C)c(C)n1,2.65
16,COc1cc(C#N)cc(C(=O)N[C@@H]2C[C@H]3CC[C@@H](C2)N3Cc2ccccc2)c1OC,8.7
17,Cc1cncc[nH+]1,-4.89
18,CN1[C@@H]2C[C@@H]3C[C@H]1[C@@H](O)[C@H]2O3,8.2
19,N#CC1CN2CCC1CC2 (stereo not drawn),7.85
20,CNc1nc2ncncc2[nH]1,4.78
21,C[NH+](C)CCC/N=C(\c1ccccc1)c1ccc2ccccc2c1,5.1
22,O=C([O-])c1cc2cc(Cn3ccnc3)ccc2o1,7.17
23,Nc1cccc([NH3+])c1,2.46
24,Cc1ccnc(-c2cc(C)ccn2)c1,5.32

row,SMILES,pKa
1,Cc1cccc(C)c1Oc1ccccn1,2.26
2,Cc1cc(N)nc(Nc2ccc(Cl)cc2)n1,6.6
3,N[C@@H](Cc1c[nH]c2ccccc12)C(=O)[O-],9.31
4,[O-]c1nc([O-])c2[nH]nnc2n1,9.3
5,CC(=O)/C(CN1CCCCC1)=N\[O-],10.7
6,Cn1cc(Cl)cn1,0.16
7,Oc1cccc2cccnc12,5.02
8,CC1=C(CC(C)NCC(O)c2ccc(Br)cc2)CCC1(C)C (stereo not drawn),8.57
9,O/N=C(/Cc1ccccc1)NO,4.25
10,CC(O)CN(CCCN1CCOCC1)CC(C)O (stereo not drawn),8.4
11,C(CN1CCOCC1)C[NH+]1CCOCC1,6.25
12,c1cncc(-c2cccnc2)c1,4.6
13,CS[C@H]1CCC[C@@H]1N(C)C,8.85
14,CC(O)CNCC[NH3+] (stereo not drawn),6.94
15,CC(=O)N(N)C1CCN(C)CC1,8.7
16,CN1C2=CCCC1CCC2 (stereo not drawn),8.8
17,Cc1ccccn1,5.98
18,Cc1ccc(N)cc1Br,4.02
19,CC1=CC(=C2C=CC=CC=C2)C=C(C)C1=O,6.26
20,CCCCCC(C)N (stereo not drawn),11.2
21,CCCN1C=CC(=CC=C2C=CC(=O)C=C2)C=C1,8.5
22,Nc1ccc(S(=O)(=O)Nc2cncnc2)cc1,1.9
23,NCCCCCCCCCCCCN,10.8
24,CN(C)/C=N/c1ccc(O)cc1,8.28

row,SMILES,pKa
1,CC(=O)n1ccnc1Cc1ncc[nH]1,6.6
2,C=CCN1CC[C@]23c4c5ccc(O)c4O[C@H]2[C@@H](O)C=C[C@H]3[C@H]1C5,7.83
3,NCCCCCN,10.8
4,COc1cc(S(C)=O)ccc1-c1cn2cccnc2n1 (stereo not drawn),3.7
5,CC1=C(CC(C)NCC(O)c2ccc(C)cc2)CCC1(C)C (stereo not drawn),8.71
6,N#CCC(N)c1ccccc1 (stereo not drawn),6.7
7,Nc1ncnc([O-])c1N,9.86
8,COc1cccc(OC)c1-c1nc2cnccc2[nH]1,6.34
9,Cc1ccccc1/C(=N\CCC[NH+](C)C)c1ccccc1N,3.82
10,NCCCCl,9.89
11,CN1[C@@H]2CC[C@H]1C[C@H](OC(=O)C(O)c1ccccc1)C2 (stereo partly drawn),9.61
12,NCCSCC[NH3+],8.84
13,CN(C)/C=N/c1ccc(Br)cc1,8.1
14,NC12CCC(CC1)C2,10.2
15,c1cc(-c2ccoc2)ccn1,5.72
16,Cn1c(=O)c2c([O-])cnnc2n(C)c1=O,8.51
17,Cc1nc2cc(C(=O)[O-])ccc2[nH]1,6
18,CN1C[C@@H](C(=O)[O-])C[C@H]2c3cccc4[nH]cc(c34)C[C@@H]21,8.47
19,CNCc1ccccn1,8.96
20,NCCCC(=O)[O-],10.5
21,COc1ccc(-c2cn3ccnc3[nH]2)c(OC)c1,6.76
